One data set has as its target T1, human DGAT1 (Homo sapiens, UniProt O75907).
T1 construct: made in house; host or cells: insect cells (sf9, sf21 or High Five) infected with baculovirus; total cell membranes
T1 sequence (O75907 1-488): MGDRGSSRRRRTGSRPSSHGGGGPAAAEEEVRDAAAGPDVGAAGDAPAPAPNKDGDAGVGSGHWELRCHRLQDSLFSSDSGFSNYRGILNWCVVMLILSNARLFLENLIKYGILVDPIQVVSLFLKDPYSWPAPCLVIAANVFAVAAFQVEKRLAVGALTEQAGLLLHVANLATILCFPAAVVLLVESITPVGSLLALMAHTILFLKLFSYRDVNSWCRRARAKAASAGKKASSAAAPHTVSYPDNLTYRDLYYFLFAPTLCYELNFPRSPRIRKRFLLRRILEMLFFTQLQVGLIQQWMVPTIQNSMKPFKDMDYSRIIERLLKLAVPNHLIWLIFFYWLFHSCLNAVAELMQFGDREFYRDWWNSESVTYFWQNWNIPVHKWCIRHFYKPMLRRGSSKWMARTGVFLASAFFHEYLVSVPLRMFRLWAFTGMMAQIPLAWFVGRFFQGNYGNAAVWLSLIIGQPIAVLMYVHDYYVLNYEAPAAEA
The data set can be described thus: DGAT Scintillation Proximity Assay (SPA) with membranes of insect cells expressing human flagtag DGAT1. Type of data set: biochemical. The note with it: read-out: hDGAT1 IC50. The gist of the method: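 Membranes (0.2 μg/well) from insect cells expressing human flag-tagged DGAT1 incubated with 10 μM compound and 200 μM dioleoyl glycerol substrate; mercuric chloride as inhibition control. Reaction stopped with WGA SPA beads in mercuric chloride, overnight bead coupling, then scintillation proximity signal read.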
(In a scintillation proximity assay essentially only radioactivity close to the scintillant gives light.)

From patent US7244727B2, “Fused bicyclic nitrogen-containing heterocycles” (Japan Tobacco Inc., priority 2002, dated 2007) come the findings set out here.

The term melting point denotes the temperature, or range, at which the solid turns liquid. The term IC50 denotes the concentration needed to halve the response being measured.

As for `CC1(C)Oc2ncnc(N)c2NC1c1ccc(C2CCCCC2)cc1` (stereo not shown) [Example 2-22], the melting point is more than 230 °C. For the same compound, on human DGAT1, the IC50 is more than 100 nM.

Take `COc1ccc(C2Nc3c(N)ncnc3OC2(C)C)cc1` (stereo not shown) [Example 2-24]: the melting point fell in the range of 225 to 226 °C. The half-maximal inhibitory concentration (IC50) at human DGAT1 is more than 100 nM.

`Cc1nc(N)c2c(n1)OC(C)(C)C(c1ccc(C3CCCCC3)cc1)=N2` [Example 2-26]: the melting point is 226 to 227 °C. Also, the 50% inhibitory concentration (IC50) on human DGAT1 lay within 10 to 100 nM.

`CC1(C)Oc2ncnc(N)c2N=C1c1ccc(-c2ccncc2)cc1` [Example 2-28]: the melting point was more than 250 °C. Also, the half-maximal inhibitory concentration (IC50) at human DGAT1 was more than 100 nM.

With `CC1(C)Oc2ncnc(N)c2N=C1c1ccc(-c2cccnc2)cc1` [Example 2-29], the melting point was in the range of 231 to 232 °C. The half-inhibitory concentration (IC50) on human DGAT1 was more than 100 nM.

`CN(C)c1ccc(-c2ccc(C3=Nc4c(N)ncnc4OC3(C)C)cc2)cc1` [Example 2-30] had a melting point of 210 to 211 °C. The concentration for half-maximal inhibition (IC50) on human DGAT1 is more than 100 nM.

`CC1(C)Oc2ncnc(N)c2N=C1c1ccc(OC2CCCCC2)cc1` [Example 2-32] displayed a melting point of 174 to 175 °C. Moreover, at human DGAT1, the IC50 is more than 100 nM.

With `CCOc1ccc(C2=Nc3c(N)ncnc3OC2(C)C)cc1` [Example 2-38], the melting point lay within 189 to 190 °C. The 50% inhibitory concentration (IC50) at human DGAT1 is more than 100 nM.

Take `CCOC(=O)C=C1CCC(c2ccc(C3=Nc4c(N)ncnc4OC3(C)C)cc2)CC1` (stereo not shown) [Example 2-39]: the melting point fell in the range of 207 to 208 °C. Further, on human DGAT1, the IC50 is more than 100 nM.

The compound `CC1(C)Oc2ncnc(N)c2N=C1c1ccc(C2CCC(=CC(=O)O)CC2)cc1` (stereo not shown) [Example 2-40] gave a melting point of more than 250 °C. The IC50 at human DGAT1 is less than 10 nM.

Take `CC1CCC(c2ccc(C3=Nc4c(N)ncnc4OC3(C)C)cc2)CC1` (stereo not shown) [Example 2-41]: the melting point lay within 201 to 209 °C. At human DGAT1, the IC50 was more than 100 nM.

As for `CC1(C)Oc2ncnc(N)c2N=C1c1ccc(C2CCC(=CC(=O)NCc3ccccc3)CC2)cc1` (stereo not shown) [Example 2-45], the melting point lay within 142 to 144 °C. Besides, the IC50 at human DGAT1 fell in the range of 10 to 100 nM.

For `CCNC(=O)C=C1CCC(c2ccc(C3=Nc4c(N)ncnc4OC3(C)C)cc2)CC1` (stereo not shown) [Example 2-47], the melting point is 229 to 230 °C. Besides, the IC50 at human DGAT1 fell in the range of 10 to 100 nM.

In the case of `CC(C)(C)OC(=O)CNC(=O)C=C1CCC(c2ccc(C3=Nc4c(N)ncnc4OC3(C)C)cc2)CC1` (stereo not shown) [Example 2-52], the melting point is 212 to 215 °C. At human DGAT1, the IC50 lay in the range of 10 to 100 nM.

For the compound `CC1(C)Oc2ncnc(N)c2NC1c1ccc(-c2ccc(CC(=O)O)cc2)cc1` (stereo not shown) [Example 2-54], the melting point is 267 °C (dec.). The IC50 on human DGAT1 was in the range of 10 to 100 nM.

Compound `CC1(C)Oc2ncnc(N)c2N=C1c1ccc([C@H]2CC[C@H](CNS(C)(=O)=O)CC2)cc1` [Example 2-58] registered a melting point of 251 to 252 °C. In addition, the half-inhibitory concentration (IC50) on human DGAT1 was 10 to 100 nM.

Regarding `CC1(C)Oc2ncnc(N)c2N=C1c1ccc([C@H]2CC[C@H](Cc3cc(O)[nH]n3)CC2)cc1` [Example 2-59], the melting point was more than 250 °C. Moreover, at human DGAT1, the IC50 is 10 to 100 nM.

Compound `CC1(C)Oc2ncnc(N)c2N=C1c1ccc([C@H]2CC[C@H](Cc3cc(O)on3)CC2)cc1` [Example 2-60] registered a melting point of 173 to 175 °C. Moreover, the half-inhibitory concentration (IC50) on human DGAT1 fell in the range of 10 to 100 nM.

Compound `CC1(C)Oc2ncnc(N)c2N=C1c1ccc([C@H]2CC[C@H](CNC(=O)OCc3ccccc3)CC2)cc1` [Example 2-61] had a melting point of 159 to 162 °C. Besides, the 50% inhibitory concentration (IC50) on human DGAT1 lay in the range of 10 to 100 nM.

The compound `CC1(C)Oc2ncnc(N)c2N=C1c1ccc([C@H]2CC[C@H](OCC(=O)O)CC2)cc1` [Example 2-62] displayed a melting point of more than 230 °C. For the same compound, on human DGAT1, the half-inhibitory concentration (IC50) lay within 10 to 100 nM.

Regarding `CC1(C)Oc2ncnc(N)c2N=C1c1ccc([C@H]2CC[C@H](CC3SC(=O)NC3=O)CC2)cc1` (stereo partly shown) [Example 2-64], the melting point is more than 230 °C. At human DGAT1, the IC50 lay within 10 to 100 nM.

For `CC(C)(NC(=O)C[C@H]1CC[C@H](c2ccc(C3=Nc4c(N)ncnc4OC3(C)C)cc2)CC1)C(=O)O` [Example 2-65], the melting point was 243 to 244 °C. Besides, the IC50 at human DGAT1 was less than 10 nM.

`CC1(C)Oc2ncnc(N)c2N=C1c1ccc2c(c1)CCCC2` [Example 2-66]: the melting point was 176 to 177 °C. Also, the 50% inhibitory concentration (IC50) at human DGAT1 was more than 100 nM.

For `CC1(C)Oc2ncnc(N)c2N=C1c1ccc(C2(C)CCC(CC(=O)O)CC2)cc1` (stereo not shown) [Example 2-67], the melting point was more than 250 °C. Moreover, on human DGAT1, the IC50 was 10 to 100 nM.

Consider `CC1(C)Oc2ncnc(N)c2N=C1c1ccc2c(c1)C(CC(=O)O)CCC2` (stereo not shown) [Example 2-68], for which the melting point was more than 250 °C. Further, at human DGAT1, the concentration for half-maximal inhibition (IC50) was more than 100 nM.

In turn, `CC(C(=O)O)[C@H]1CC[C@H](c2ccc(C3=Nc4c(N)ncnc4OC3(C)C)cc2)CC1` (stereo partly shown) [Example 2-69] registered a melting point of more than 250 °C. In addition, on human DGAT1, the 50% inhibitory concentration (IC50) is less than 10 nM.

On to `CC1(C)Oc2ncnc(N)c2N=C1c1ccc([C@H]2CC[C@H](CN3CC(=O)NC3=O)CC2)cc1` [Example 2-70], for which the melting point lay within 212 to 214 °C. The IC50 at human DGAT1 was in the range of 10 to 100 nM.

`CC1(C)Oc2ncnc(N)c2N=C1c1ccc2c(c1)CC(C(=O)O)C2` (stereo not shown) [Example 2-71]: the melting point is more than 250 °C. The IC50 at human DGAT1 was more than 100 nM.

Consider `CC1(C)Oc2ncnc(N)c2N=C1c1ccc2c(c1)CC(CC(=O)O)C2` (stereo not shown) [Example 2-72], for which the melting point was more than 250 °C. In addition, at human DGAT1, the half-maximal inhibitory concentration (IC50) was 10 to 100 nM.

In turn, `CC(C)(NC(=O)C[C@H]1CC[C@H](c2ccc(C3Nc4c(N)ncnc4OC3(C)C)cc2)CC1)C(=O)O` (stereo partly shown) [Example 2-73] displayed a melting point of more than 250 °C. Moreover, at human DGAT1, the IC50 was 10 to 100 nM.

With `CC1(C)Oc2ncnc(N)c2NC1(C)c1ccc(C2CCCCC2)cc1` (stereo not shown) [Example 2-75], the melting point fell in the range of 244 to 245 °C. Also, the 50% inhibitory concentration (IC50) on human DGAT1 is more than 100 nM.

`CC1(C)Oc2ncnc(N)c2NC1c1ccc([C@H]2CC[C@H](Cc3nn[nH]n3)CC2)cc1` (stereo partly shown) [Example 2-76]: the melting point is more than 250 °C. At human DGAT1, the IC50 was in the range of 10 to 100 nM.

In the case of `CC1(C)Oc2ncnc(N)c2N=C1c1ccc([C@H]2CC[C@H](CC(=O)N3CCC(O)CC3)CC2)cc1` [Example 2-77], the melting point lay in the range of 137 to 139 °C. In addition, the half-maximal inhibitory concentration (IC50) on human DGAT1 lay in the range of 10 to 100 nM.

Turning to `CC(C)(O)C[C@H]1CC[C@H](c2ccc(C3=Nc4c(N)ncnc4OC3(C)C)cc2)CC1` [Example 2-78], the melting point lay in the range of 185 to 187 °C. In addition, the IC50 on human DGAT1 lay in the range of 10 to 100 nM.

`CC1(C)Oc2ncnc(N)c2N=C1c1ccc([C@H]2CC[C@H](CCO)CC2)cc1` [Example 2-79] gave a melting point of 207 to 208 °C. The IC50 on human DGAT1 was 10 to 100 nM.

Compound `CC1(C)Oc2ncnc(N)c2N=C1c1ccc([C@H]2CC[C@H](CC(O)C(F)(F)F)CC2)cc1` (stereo partly shown) [Example 2-80] displayed a melting point of 271 to 272 °C. Further, on human DGAT1, the IC50 was 10 to 100 nM.

`CC1(C)Oc2ncnc(N)c2N=C1c1ccc([C@H]2CC[C@H](CCN3CCCCC3)CC2)cc1` [Example 2-82] displayed a melting point of 209 to 210 °C. Further, the concentration for half-maximal inhibition (IC50) at human DGAT1 was more than 100 nM.

On to `CC1(C)Oc2ncnc(N)c2N=C1c1ccc([C@H]2CC[C@H](CCN3CCCC3)CC2)cc1` [Example 2-83], for which the melting point lay within 142 to 143 °C. Moreover, at human DGAT1, the half-maximal inhibitory concentration (IC50) was more than 100 nM.

In turn, `CC1(C)Oc2ncnc(N)c2N=C1c1ccc([C@H]2CC[C@H](CCN3CCC(O)CC3)CC2)cc1` [Example 2-84] gave a melting point of 217 to 218 °C. At human DGAT1, the IC50 was more than 100 nM.

With `CC1(C)Oc2ncnc(N)c2N=C1c1ccc([C@H]2CC[C@H](CCN3CCC(O)(c4ccccc4)CC3)CC2)cc1` [Example 2-85], the melting point lay in the range of 115 to 116 °C. The IC50 on human DGAT1 was more than 100 nM.

The compound `CC1(C)Oc2ncnc(N)c2N=C1c1ccc([C@H]2CC[C@H](CCN3CCC(Cc4ccccc4)CC3)CC2)cc1` [Example 2-86] gave a melting point of 190 to 191 °C. The IC50 on human DGAT1 was more than 100 nM.

`CC1(C)Oc2ncnc(N)c2N=C1c1ccc([C@H]2CC[C@H](CCN3CCC(CCO)CC3)CC2)cc1` [Example 2-87]: the melting point was 221 to 222 °C. Also, the IC50 at human DGAT1 was more than 100 nM.

Compound `CC1(C)Oc2ncnc(N)c2N=C1c1ccc([C@H]2CC[C@H](CCN3CCN(Cc4ccccc4)CC3)CC2)cc1` [Example 2-88] showed a melting point of 175 to 176 °C. Besides, the IC50 on human DGAT1 is more than 100 nM.

`CN1CCN(C(=O)C[C@H]2CC[C@H](c3ccc(C4=Nc5c(N)ncnc5OC4(C)C)cc3)CC2)CC1` [Example 2-92] had a melting point of 113 to 115 °C. In addition, the concentration for half-maximal inhibition (IC50) on human DGAT1 was 10 to 100 nM.

`CC1(C)Oc2ncnc(N)c2N=C1c1ccc([C@H]2CC[C@H](CC(=O)N3CCCCC3)CC2)cc1` [Example 2-93] came in with a melting point of 146 to 147 °C. The half-inhibitory concentration (IC50) at human DGAT1 was 10 to 100 nM.

`CC1(C)Oc2ncnc(N)c2N=C1c1ccc([C@H]2CC[C@H](CC(=O)N3CCCC3)CC2)cc1` [Example 2-94] came in with a melting point of 232 to 233 °C. Further, on human DGAT1, the half-inhibitory concentration (IC50) was in the range of 10 to 100 nM.

Compound `CC1(C)Oc2ncnc(N)c2N=C1c1ccc([C@H]2CC[C@H](CC(=O)N3CCOCC3)CC2)cc1` [Example 2-95] yielded a melting point of 199 to 200 °C. Further, the half-inhibitory concentration (IC50) on human DGAT1 was in the range of 10 to 100 nM.
